Experiments:
HGF = test: Wound healing assay; assay type: cell-based, human; details: IC25 concentration, area closed
Method: (§1) The wound healing activity of complexes 3 and 4 was evaluated using the ibidi Culture-Insert 2 Well in a μ-dish. Cells were plated by applying 70 μL of cell suspension at a density of 50,000 cells into both wells of the Culture-Insert 2 Well and grown over the weekend. Once confluency was achieved, sterile tweezers were used to detach the Culture-Insert 2 Well from the μ-dish. The cell layer was then gently washed with PBS. Subsequently, the cell layer was treated with medium containing complex 3 or 4 at the IC25 concentration, and wound closure was observed and photographed using an inverted light microscope (0–55 h of incubation). Experiments were performed in four independent replicates.
(§2) An in vitro wound healing assay was performed to determine the effect of complex 3 or 4 on cell migration. The area of the wound bordered by a monolayer of cells was measured using ImageJ software. Wound closure was monitored from 0 to 55 h. […] Microscope images after 24 h for all cell lines, as well as 55 h, can be seen in Supplementary Figure S7. […] The stained wound healing area after 55 h is shown in Supplementary Figure S10.

Hep-2 = test: Wound healing assay; assay type: cell-based, human; details: IC25 concentration, area closed
Method: as §1, §2

CAL 27 = test: Wound healing assay; assay type: cell-based, human; details: IC25 concentration, area closed
Method: as §1, §2

KB = test: Wound healing assay; assay type: cell-based, human; details: IC25 concentration, area closed
Method: as §1, §2

TR146 = test: Wound healing assay; assay type: cell-based, human; details: IC25 concentration, area closed
Method: as §1, §2

SCC-9 = test: Wound healing assay; assay type: cell-based, human; details: IC25 concentration, area closed
Method: as §1, §2

FaDu = test: Wound healing assay; assay type: cell-based, human; details: IC25 concentration, area closed
Method: as §1, §2

Detroit 562 = test: Wound healing assay; assay type: cell-based, human; details: IC25 concentration, area closed
Method: as §1, §2

IKKβ = target: T1, IKKβ (Homo sapiens, UniProt O14920); test: IKKβ inhibition assay (IKKβ Kinase Assay Kit); assay type: biochemical
T1 construct: purchased BPS Bioscience
T1 sequence (O14920 1-756): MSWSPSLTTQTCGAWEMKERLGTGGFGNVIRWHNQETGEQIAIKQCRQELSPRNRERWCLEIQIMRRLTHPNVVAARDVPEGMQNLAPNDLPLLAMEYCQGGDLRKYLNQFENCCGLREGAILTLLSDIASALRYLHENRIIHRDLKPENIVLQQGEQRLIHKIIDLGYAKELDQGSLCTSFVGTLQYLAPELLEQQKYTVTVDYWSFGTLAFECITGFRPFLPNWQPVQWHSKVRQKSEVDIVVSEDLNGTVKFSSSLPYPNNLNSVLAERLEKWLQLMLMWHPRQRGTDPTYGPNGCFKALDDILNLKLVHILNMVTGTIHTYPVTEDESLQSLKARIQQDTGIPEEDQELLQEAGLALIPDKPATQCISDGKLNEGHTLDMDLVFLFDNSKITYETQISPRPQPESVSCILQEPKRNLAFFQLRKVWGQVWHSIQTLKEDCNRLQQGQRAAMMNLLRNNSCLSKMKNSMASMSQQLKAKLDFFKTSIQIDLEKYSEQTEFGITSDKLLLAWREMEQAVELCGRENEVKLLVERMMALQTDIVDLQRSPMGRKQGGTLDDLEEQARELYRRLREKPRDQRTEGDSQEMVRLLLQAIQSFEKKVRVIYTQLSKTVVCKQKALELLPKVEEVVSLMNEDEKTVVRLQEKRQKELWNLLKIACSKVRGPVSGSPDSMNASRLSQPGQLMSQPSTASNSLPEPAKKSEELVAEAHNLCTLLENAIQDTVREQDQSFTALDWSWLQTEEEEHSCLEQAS
Method: IκB kinase beta (IKKβ) inhibition was determined using the IKKβ Kinase Assay Kit (BPS Bioscience, San Diego, California, USA). […] Kinase-Glo® MAX (Promega, #V6071, Madison, Wisconsin, USA) was used as the detection reagent, with an incubation time of 15 min. Blank values were subtracted from all measurements. Luminescence was measured with an integration time of 1 s using a Spark Microplate Reader (Tecan, Switzerland).

IL-8 = target: T2, IL-8 (Homo sapiens, UniProt P10145); test: Sandwich ELISA assay IL-8; assay type: binding; details: for Decrease of IL-8 concentration: 500 pg/mL IL-8
T2 construct: purchased PeproTech, Thermo Fisher Scientific
T2 sequence (P10145 21-99): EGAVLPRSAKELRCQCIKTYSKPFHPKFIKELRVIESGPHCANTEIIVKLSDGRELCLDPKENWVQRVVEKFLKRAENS
Method: Human ELISA kits for IL-6, IL-6R, and IL-8 (Sigma-Aldrich, Merck, Germany) were used to quantify cytokine levels after treatment with complex 3 or 4. Briefly, 96-well plates precoated with specific antibodies were used to capture IL-6, IL-6R, and IL-8 from samples. […] Each sample was supplemented with 500 pg/mL of IL-6/IL-6R/IL-8. Positive control wells contained only the IL-6/IL-6R/IL-8 standard (PeproTech, Thermo Fisher Scientific, Waltham, Massachusetts, USA). […] After incubation, wells were washed, and biotinylated antihuman antibodies were added, followed by washing and addition of HRP-conjugated streptavidin. Finally, the TMB substrate was added to develop a color proportional to the cytokine concentration, and the reaction was stopped with the stop solution. Absorbance was measured at 450 nm using an […] 200 PRO microplate reader (TECAN, Switzerland).

Cc1ccc(C(C)C)cc1.Cc1ccc(C(C)C)cc1.O=C1C(=Cc2ccnc3ccccc23)COCC1=Cc1ccnc2ccccc12.[Cl][Ru][Cl].[Cl][Ru][Cl] [Complex 3]
Wound area (%) (HGF; 24 h): 8 ± 3% | Wound area (%) (HGF; 48 h): 13 ± 5% | Wound area (%) (HGF; 55 h): 71 ± 2% | Wound area (%) (Hep-2; Hep-2, 24 h): 3 ± 1% | Wound area (%) (Hep-2; Hep-2, 48 h): 5 ± 1% | Wound area (%) (Hep-2; Hep-2, 55 h): less than 10% | Wound area (%) (Hep-2; Hep-2, 55 h, listed as C3): 7 ± 1% | Wound area (%) (CAL 27; CAL 27, 24 h): 10 ± 2% | Wound area (%) (CAL 27; CAL 27, 48 h): 15 ± 3% | Wound area (%) (CAL 27; CAL 27, 55 h): less than 20% | Wound area (%) (CAL 27; CAL 27, 55 h, listed as C3): 16 ± 3% | Wound area (%) (KB; 24 h): 7 ± 1% | Wound area (%) (KB; 48 h): 13 ± 1% | Wound area (%) (KB; 55 h): less than 20% | Wound area (%) (KB; 55 h, listed as C3): 17 ± 2% | Wound area (%) (TR146; TR146, 24 h): 3 ± 1% | Wound area (%) (TR146; TR146, 48 h): 4 ± 1% | Wound area (%) (TR146; TR146, 55 h): less than 10% | Wound area (%) (TR146; TR146, 55 h, listed as C3): 5 ± 1% | Wound area (%) (SCC-9; SCC-9, 24 h): 5 ± 2% | Wound area (%) (SCC-9; SCC-9, 48 h): 6 ± 2% | Wound area (%) (SCC-9; SCC-9, 55 h): less than 10% | Wound area (%) (SCC-9; SCC-9, 55 h, listed as C3): 7 ± 2% | Wound area (%) (FaDu; 24 h): 7 ± 1% | Wound area (%) (FaDu; 48 h): 9 ± 1% | Wound area (%) (FaDu; 55 h): less than 20% | Wound area (%) (FaDu; 55 h, listed as C3): 12 ± 1% | Wound area (%) (Detroit 562; Detroit 562, 24 h): 8 ± 2% | Wound area (%) (Detroit 562; Detroit 562, 48 h): 9 ± 3% | Wound area (%) (Detroit 562; Detroit 562, 55 h): less than 20% | Wound area (%) (Detroit 562; Detroit 562, 55 h, listed as C3): 10 ± 2% | Reduction of IKKβ activity (IKKβ; 8 μM): about 40% | IL-8 reduction relative to curcumin (IL-8; 1 µM versus curcumin at 5 µM): roughly 1.5 fold | Decrease of IL-8 concentration (IL-8; 8 µM): approximately 40%

Cc1ccc(C(C)C)cc1.Cc1ccc(C(C)C)cc1.O=C1C(=Cc2cccnc2)CCC1=Cc1cccnc1.[Cl][Ru][Cl].[Cl][Ru][Cl] [Complex 4]
Wound area (%) (HGF; 24 h): 13 ± 3% | Wound area (%) (HGF; 48 h): 47 ± 11% | Wound area (%) (HGF; 55 h): 91 ± 1% | Wound area (%) (Hep-2; Hep-2, 24 h): 9 ± 2% | Wound area (%) (Hep-2; Hep-2, 48 h): 23 ± 3% | Wound area (%) (Hep-2; Hep-2, 55 h): less than 50% | Wound area (%) (Hep-2; Hep-2, 55 h, listed as C4): 47 ± 2% | Wound area (%) (CAL 27; CAL 27, 24 h): 7 ± 4% | Wound area (%) (CAL 27; CAL 27, 48 h): 11 ± 3% | Wound area (%) (CAL 27; CAL 27, 55 h): less than 15% | Wound area (%) (CAL 27; CAL 27, 55 h, listed as C4): 12 ± 3% | Wound area (%) (KB; 24 h): 16 ± 4% | Wound area (%) (KB; 48 h): 33 ± 4% | Wound area (%) (KB; 55 h): less than 50% | Wound area (%) (KB; 55 h, listed as C4): 44 ± 2% | Wound area (%) (TR146; TR146, 24 h): 3 ± 1% | Wound area (%) (TR146; TR146, 48 h): 5 ± 1% | Wound area (%) (TR146; TR146, 55 h): less than 15% | Wound area (%) (TR146; TR146, 55 h, listed as C4): 7 ± 1% | Wound area (%) (SCC-9; SCC-9, 24 h): 17 ± 12% | Wound area (%) (SCC-9; SCC-9, 48 h): 37 ± 8% | Wound area (%) (SCC-9; SCC-9, 55 h): 55 ± 13% | Wound area (%) (FaDu; 24 h): 24 ± 6% | Wound area (%) (FaDu; 48 h): 43 ± 10% | Wound area (%) (FaDu; 55 h): 61 ± 6% | Wound area (%) (Detroit 562; Detroit 562, 24 h): 13 ± 7% | Wound area (%) (Detroit 562; Detroit 562, 48 h): 38 ± 11% | Wound area (%) (Detroit 562; Detroit 562, 55 h): 76 ± 2% | Inhibition of IKKβ activity (IKKβ; 1 μM): approximately 30% | Decrease of IL-8 concentration (IL-8; 15 µM): approximately 30%
